# Laboratory results as given in USRE39866E1 (Telik, Inc., priority 1997, dated 2007).
# Like-named read-outs stand apart in the source and are kept apart here.
# Key:
# [1] = biological target: T1, human insulin receptors (hIR) (Homo sapiens, UniProt P06213); assay: insulin receptor kinase autophosphorylation assay (captured hIR, anti-phosphotyrosine ELISA); type: biochemical; conditions: for agonist activity in IR kinase assay (in words): samples as screened; for activity in IR kinase assay after synthesis or purification: synthesized or extensively purified / HPLC-purified material
# T1 construct: partially purified from placental extracts or from cell line IM-9; from tissue; host or cells: human placental extracts or cell line IM-9
# T1 sequence (P06213 763-1382 limits assumed): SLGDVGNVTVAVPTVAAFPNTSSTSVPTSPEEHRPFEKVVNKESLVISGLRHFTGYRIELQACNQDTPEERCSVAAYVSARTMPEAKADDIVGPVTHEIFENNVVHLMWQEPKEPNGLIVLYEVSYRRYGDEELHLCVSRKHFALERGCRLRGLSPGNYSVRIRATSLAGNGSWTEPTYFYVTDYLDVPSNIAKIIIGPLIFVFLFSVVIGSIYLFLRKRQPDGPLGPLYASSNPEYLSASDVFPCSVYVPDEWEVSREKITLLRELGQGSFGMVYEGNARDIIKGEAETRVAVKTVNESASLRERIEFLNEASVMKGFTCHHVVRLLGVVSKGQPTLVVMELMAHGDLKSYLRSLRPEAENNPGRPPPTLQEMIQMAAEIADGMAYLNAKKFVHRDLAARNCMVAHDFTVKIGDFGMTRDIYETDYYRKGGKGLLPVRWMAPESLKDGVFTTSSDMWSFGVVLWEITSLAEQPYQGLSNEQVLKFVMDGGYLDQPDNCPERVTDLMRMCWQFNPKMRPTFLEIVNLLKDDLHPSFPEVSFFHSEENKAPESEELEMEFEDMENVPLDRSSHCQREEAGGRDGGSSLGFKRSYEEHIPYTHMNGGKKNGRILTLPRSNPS
# T1 sequence (P06213 28-758 partner limits assumed): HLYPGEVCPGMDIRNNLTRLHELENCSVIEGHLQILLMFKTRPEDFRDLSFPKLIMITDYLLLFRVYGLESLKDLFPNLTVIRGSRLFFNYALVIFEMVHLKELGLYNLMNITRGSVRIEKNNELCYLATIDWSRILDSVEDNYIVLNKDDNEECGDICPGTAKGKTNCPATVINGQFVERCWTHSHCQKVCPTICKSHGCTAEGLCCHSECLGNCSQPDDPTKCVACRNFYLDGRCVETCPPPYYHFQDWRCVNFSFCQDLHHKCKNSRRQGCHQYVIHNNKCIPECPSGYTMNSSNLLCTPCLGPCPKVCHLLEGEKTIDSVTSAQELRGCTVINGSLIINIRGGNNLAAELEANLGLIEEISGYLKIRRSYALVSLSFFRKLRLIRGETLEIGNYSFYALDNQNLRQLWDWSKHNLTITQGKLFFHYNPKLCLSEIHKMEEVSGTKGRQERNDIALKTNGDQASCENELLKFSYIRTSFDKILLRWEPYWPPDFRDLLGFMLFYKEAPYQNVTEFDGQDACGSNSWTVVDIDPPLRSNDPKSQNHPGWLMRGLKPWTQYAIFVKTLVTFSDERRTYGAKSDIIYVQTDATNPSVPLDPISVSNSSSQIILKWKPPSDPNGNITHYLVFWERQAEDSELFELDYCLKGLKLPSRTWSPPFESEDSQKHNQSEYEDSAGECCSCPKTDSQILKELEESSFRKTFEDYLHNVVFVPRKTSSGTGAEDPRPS
# Procedure: This assay is a modified form of that described in Hagino, H. et al. Diabetes (1994) 43:274-280. […] The partially purified hIRs were captured into microplate wells by incubating them for 90 minutes with wells coated with a monoclonal antibody to hIR. […] After 60 minutes, the wells were washed, and then treated for 60 minutes with biotinylated antibody directed against phosphotyrosine (PY-20) and unbound materials again washed away. The wells were then incubated with a conventional streptavidin peroxidase system for 30 minutes to assess the level of phosphorylated tyrosine.
# [2] = biological target: T2, human insulin receptor (Homo sapiens, UniProt P06213); assay: phosphorylation of artificial substrate poly(Glu4Tyr) by activated receptor, labeled ATP; type: biochemical
# T2 construct: partially purified from placental extracts or from cell line IM-9; from tissue; host or cells: human placental extracts or cell line IM-9
# T2 sequence (P06213 763-1382 limits assumed): as the sequence (P06213 763-1382 limits assumed) above
# T2 sequence (P06213 28-758 partner limits assumed): as the sequence (P06213 28-758 partner limits assumed) above
# [3] = biological target: T3, insulin receptor on human lymphocytic cell line IM-9 (Homo sapiens, UniProt P06213); assay: insulin receptor agonist activity on whole IM-9 cells (lysate ELISA); type: cell-based
# T3 construct: on whole cells, i.e., on the human lymphocytic cell line IM-9; endogenous in cells; host or cells: IM-9 human lymphocytic cell line
# T3 sequence (P06213 763-1382 limits assumed): as the sequence (P06213 763-1382 limits assumed) above
# T3 sequence (P06213 28-758 partner limits assumed): as the sequence (P06213 28-758 partner limits assumed) above
# Procedure: The cells were then lysed in 0.5% Tween 20 and lysates analyzed in an ELISA assay as described in paragraph A, without the steps of incubation with ATP.
# [4] = biological target: T4, recombinantly produced β chain lacking the insulin-binding domain (Homo sapiens, UniProt P06213); assay: phosphorylation of substrate peptide Raytide by recombinant beta chain kinase; type: biochemical; conditions: 25 μM
# T4 construct: purchased Stratagene, Inc
# T4 sequence (P06213 763-1382 limits assumed): as the sequence (P06213 763-1382 limits assumed) above
# Procedure: The ability of this kinase to phosphorylate a substrate peptide (Raytide from Oncogene Sciences) is stimulated by TER12 at 25 μM.
# [5] = test system: 3T3-L1 fibroblast cells; assay: differentiation of 3T3-L1 fibroblasts to adipocyte-like morphology (Oil Red O uptake); type: cell-based
# From the text: (§1) Insulin also enhances glucose transport in this cell line.
# [6] = test system: 3T3-L1 fibroblast cells; assay: glucose transport in 3T3-L1 cell line; type: cell-based
# From the text: as §1
# [7] = test system: Glut4 transporter in 3T3-L1 adipocytes; assay: distribution of Glut4 transporter in 3T3-L1 adipocytes (immunofluorescence); type: cell-based; conditions: 15 minutes incubation
# From the text: The results were visualized under a fluorescent microscope.
molecule,measurement,setting,value
"O=C(Nc1cc(S(=O)(=O)[O-])cc2cc(S(=O)(=O)[O-])c(N=Nc3cc(Nc4nc(Cl)nc(Nc5ccc(S(=O)(=O)[O-])cc5)n4)ccc3S(=O)(=O)[O-])c(O)c12)c1ccccc1.[Na+].[Na+].[Na+].[Na+] [TER12, Cibacron Brilliant Red 3BA]",increase in phosphorylation on addition to insulin,[1]; 60 μM sample added to hIR contacted with 0.3 nM insulin,approximately three-fold
same,stimulation of autophosphorylation,"[1]; absence of insulin, 20 μM of sample composed mainly of TER12",over five-fold
same,EC50,"[1]; read-out: EC50 for enhancing insulin stimulation, sample calculated as TER12",~20 µM
same,agonist activity in IR kinase assay (in words),[1],apparent agonist activity
same,activity in IR kinase assay after synthesis or purification,[1],active
same,percent of maximal phosphorylation,[2]; 0.5 nM insulin plus 20 μM TER12 sample,120%
same,percent of maximal phosphorylation,[2]; 5 nM insulin plus TER12 sample,140%
same,percent of maximal insulin-stimulated activity,"[2]; about 20 μM sample calculated as TER12, no insulin",75%
same,increase of basal insulin receptor kinase activity,"[3]; 5 minutes exposure, sample containing 20 μM TER12",two-fold
same,increase of insulin stimulated insulin receptor kinase activity,"[3]; 5 minutes exposure, sample containing 20 μM TER12, with insulin",five-fold
same,stimulation of kinase phosphorylation of Raytide,[4],stimulated
same,effect on insulin-induced differentiation,[5]; 20 μM with insulin,enhances the differentiating effect of insulin
same,effect on differentiation,[5]; sample alone,does not appear to effect differentiation
same,stimulation of glucose transport,[6]; sample alone,failed to stimulate glucose transport significantly
same,effect on insulin-stimulated glucose transport,[6]; with insulin,enhanced the ability of insulin to do so
"COc1ccccc1NC(=O)C(N=Nc1ccc(-c2nc3ccc(C)c(S(=O)(=O)[O-])c3s2)cc1S(=O)(=O)[O-])C(C)=O.[Na+].[Na+] (stereo not drawn) [TER3938, Direct Yellow 27]",activity in IR kinase assay of insoluble compound,[1]; insoluble compound after washing sample with aqueous sodium carbonate,less active
same,EC50,[1]; read-out: EC50 in in vitro autophosphorylation assay,8 µM
same,agonist activity in IR kinase assay (in words),[1],agonist activity
same,activity in IR kinase assay after synthesis or purification,[1],retained its activity
same,enhancement of insulin-stimulated autophosphorylation of insulin receptor,[3]; intact IM-9 cells,enhanced the activity of insulin
insulin,redistribution of Glut4,[7],dramatic redistribution of Glut4 to the membrane surfaces
